Test system: not listed separately
Test: Percent blockade of the vasopressor response to A II (0.05 ug/kg i.v.) at a dose of 5 mg/kg p.o. in A II challenge model
Assay type: functional
Conditions: route oral

Compound | Activity [%]
CCCCc1nc2ccc([C@@H]3[C@@H]4C(=O)CC[C@@H]4ON3C)cc2c(=O)n1Cc1ccc(-c2ccccc2-c2nn[nH]n2)cc1 | 95

Test system: not listed separately
Test: Percent blockade of the vasopressor response to A II (0.05 ug/kg i.v.) at a dose of 5 mg/kg p.o. in A II challenge model.
Assay type: functional
Conditions: route oral

Compound | Activity [%]
CCCCc1nc2ccc([C@H]3[C@@H]4C(=O)OC[C@@H]4ON3C)cc2c(=O)n1Cc1ccc(-c2ccccc2-c2nn[nH]n2)cc1 | 95

Target: T1, Type-1 angiotensin II receptor (Bos taurus, UniProt P25104)
T1 sequence (P25104 whole entry): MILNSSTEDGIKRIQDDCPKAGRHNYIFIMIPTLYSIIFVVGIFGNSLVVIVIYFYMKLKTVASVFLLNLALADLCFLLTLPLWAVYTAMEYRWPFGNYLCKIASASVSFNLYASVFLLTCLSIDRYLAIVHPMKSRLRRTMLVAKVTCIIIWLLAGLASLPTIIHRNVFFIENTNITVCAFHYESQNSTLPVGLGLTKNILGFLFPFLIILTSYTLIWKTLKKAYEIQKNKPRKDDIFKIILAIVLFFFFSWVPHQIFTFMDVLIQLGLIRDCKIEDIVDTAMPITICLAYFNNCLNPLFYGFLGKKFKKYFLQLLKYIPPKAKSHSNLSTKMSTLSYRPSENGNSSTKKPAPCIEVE
Test: In vitro binding affinity to angiotensin II receptor in bovine adrenal cortex
Assay type: tissue-based
Conditions: not given

Compound | IC50 [nM]
CCCCc1nc2ccc([C@@H]3C[C@H]4C(c5ccc(C)cc5)=NO[C@H]4O3)cc2c(=O)n1Cc1ccc(-c2ccccc2-c2nnn[nH]2)cc1 | 105
CCCCc1nc2ccc([C@@H]3C[C@H]4C(c5ccccc5)=NO[C@H]4O3)cc2c(=O)n1Cc1ccc(-c2ccccc2-c2nn[nH]n2)cc1 | 76
CCCCc1nc2ccc([C@@H]3C[C@H](CO)ON3C)cc2c(=O)n1Cc1ccc(-c2ccccc2-c2nn[nH]n2)cc1 | 61
CCCCc1nc2ccc([C@@H]3C[C@H]4C5CCC(C)(C)N5O[C@H]4O3)cc2c(=O)n1Cc1ccc(-c2ccccc2-c2nn[nH]n2)cc1 (stereo partly specified) | 32
CCCCc1nc2ccc([C@@H]3[C@@H]4C(=O)CC[C@@H]4ON3C)cc2c(=O)n1Cc1ccc(-c2ccccc2-c2nn[nH]n2)cc1 | 42
CCCCc1nc2ccc([C@H]3[C@@H]4CCC[C@@H]4ON3C)cc2c(=O)n1Cc1ccc(-c2ccccc2-c2nnn[nH]2)cc1 | 98
CCCCc1nc2ccc([C@H]3[C@@H]4C(=O)CC[C@@H]4ON3C)cc2c(=O)n1Cc1ccc(-c2ccccc2-c2nnn[nH]2)cc1 | 98
CCCCc1nc2ccc([C@H]3[C@@H]4C(=O)OC[C@@H]4ON3Cc3ccccc3)cc2c(=O)n1Cc1ccc(-c2ccccc2-c2nnn[nH]2)cc1 | 177
CCCCc1nc2ccc([C@H]3OC[C@@H]4ON5[C@@H](CCC5(C)C)[C@@H]43)cc2c(=O)n1Cc1ccc(-c2ccccc2-c2nn[nH]n2)cc1 | 38

The next lines start with the values.

IC50 [nM] | Compound
16 | CCCCc1nc2ccc([C@@H]3[C@H]4CCCN3OC4)cc2c(=O)n1Cc1ccc(-c2ccccc2-c2nnn[nH]2)cc1
79 | CCCCc1nc2ccc([C@H]3[C@@H]4C(=O)CC[C@@H]4ON3Cc3ccccc3)cc2c(=O)n1Cc1ccc(-c2ccccc2-c2nnn[nH]2)cc1
150 | CCCCc1nc2ccc([C@@H]3[C@@H]4C(=O)OC[C@@H]4ON3C)cc2c(=O)n1Cc1ccc(-c2ccccc2-c2nnn[nH]2)cc1
42 | CCCCc1nc2ccc([C@@H]3C[C@H]4CCCCN3O4)cc2c(=O)n1Cc1ccc(-c2ccccc2-c2nnn[nH]2)cc1
900 | CCCCc1nc2ccc([C@H]3[C@@H]4C(=O)CCC[C@@H]4ON3C)cc2c(=O)n1Cc1ccc(-c2ccccc2-c2nn[nH]n2)cc1
94 | CCCCc1nc2ccc([C@@H]3[C@@H]4C(=O)OC[C@@H]4ON3Cc3ccccc3)cc2c(=O)n1Cc1ccc(-c2ccccc2-c2nn[nH]n2)cc1
110 | CCCCc1nc2ccc(C3=NN[C@H]4C(=O)N(C)C(=O)[C@@H]34)cc2c(=O)n1Cc1ccc(-c2ccccc2-c2nn[nH]n2)cc1
53 | CCCCc1nc2ccc([C@H]3OC[C@H]4[C@@H]3ON3[C@@H]4CCC3(C)C)cc2c(=O)n1Cc1ccc(-c2ccccc2-c2nnn[nH]2)cc1
43 | CCCCc1nc2ccc([C@H]3C[C@H](CO)ON3C)cc2c(=O)n1Cc1ccc(-c2ccccc2-c2nnn[nH]2)cc1
68 | CCCCc1nc2ccc([C@H]3[C@@H]4C(=O)OC[C@@H]4ON3C)cc2c(=O)n1Cc1ccc(-c2ccccc2-c2nn[nH]n2)cc1
180 | CCCCc1nc2ccc([C@H]3C4CCCCCCC4ON3C)cc2c(=O)n1Cc1ccc(-c2ccccc2-c2nn[nH]n2)cc1 (stereo partly specified)
154 | CCCCc1nc2ccc([C@H]3C4CCCC4ON3C)cc2c(=O)n1Cc1ccc(-c2ccccc2-c2nn[nH]n2)cc1 (stereo partly specified)

Test system: Rattus norvegicus
Test: Decrease in Mean Arterial Blood Pressure(MABP) in Aorta […] rat model at a dose of 3 mg/kg p.o.
Assay type: functional
Conditions: route oral

Compound | MABP [mmHg]
CCCCc1nc2ccc(C3CCC4CCCCC4O3)cc2c(=O)n1Cc1ccc(-c2ccccc2-c2nn[nH]n2)cc1 (stereo unspecified) | 15
CCCCc1nc2ccc([C@H]3[C@@H]4C(=O)OC[C@@H]4ON3C)cc2c(=O)n1Cc1ccc(-c2ccccc2-c2nn[nH]n2)cc1 | 60
CCCCc1nc2ccc([C@H]3OC[C@@H]4ON5[C@@H](CCC5(C)C)[C@@H]43)cc2c(=O)n1Cc1ccc(-c2ccccc2-c2nn[nH]n2)cc1 | 45

Source: ChEMBL document CHEMBL1151584, “6-Substituted Quinazolinone Angiotensin II Receptor Antagonists” (Bioorg Med Chem Lett, 1994)
